Results: US10173991B2, “Sulfone amide linked benzothiazole inhibitors of endothelial lipase” (BRISTOL-MYERS SQUIBB COMPANY, priority 2014, dated 2019)
Where two headings read alike, the source gives them in different places.

Biological target: Endothelial lipase (EL) (Homo sapiens (Human), UniProt Q9Y5X9)
Assay: Endothelial lipase (EL) enzymatic assay with fluorescent substrate A10070 in DMPG vesicles
Type: biochemical
How it was run: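 Vesicles prepared: A10070 dried with DMPG, resuspended in HEPES pH 8.0/NaCl/EDTA, sonicated on ice. Enzyme incubated with compound 30 min at 37° C. Reaction started with 1:10 diluted vesicles. Fluorescence (490/530 nm) followed 60 min; slope from 300–900 secs gives rate.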

Sequence of Endothelial lipase (EL) (Q9Y5X9 21-500): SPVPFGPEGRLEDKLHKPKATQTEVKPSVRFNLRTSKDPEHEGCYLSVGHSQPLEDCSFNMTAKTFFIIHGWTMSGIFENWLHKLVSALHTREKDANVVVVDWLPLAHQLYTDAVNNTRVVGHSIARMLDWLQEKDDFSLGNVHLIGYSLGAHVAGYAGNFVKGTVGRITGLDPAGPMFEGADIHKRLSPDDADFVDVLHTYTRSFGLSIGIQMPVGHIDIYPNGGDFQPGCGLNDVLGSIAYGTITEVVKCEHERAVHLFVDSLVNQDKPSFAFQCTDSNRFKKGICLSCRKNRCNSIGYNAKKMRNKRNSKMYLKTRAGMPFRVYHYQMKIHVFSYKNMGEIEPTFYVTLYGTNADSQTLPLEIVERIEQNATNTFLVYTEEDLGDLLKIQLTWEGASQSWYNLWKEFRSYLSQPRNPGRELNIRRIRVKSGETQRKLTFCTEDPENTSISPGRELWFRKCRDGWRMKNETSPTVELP

An IC50 of 2 nM was found for `CS(=O)(=O)C(C(=O)NCC(=O)NC1CC1)c1nc2cc(F)c(-c3ccccc3)cc2s1` (centres unmarked) [Example 609, N-[(cyclopropyl-carbamoyl)methyl]-2-(5-fluoro-6-phenyl-1,3-benzothiazol-2-yl)-2-methanesulfonyl-acetamide] in this work.

An IC50 of 40 nM was found for `CS(=O)(=O)C(C(=O)NCC(=O)NC1CC1)c1nc2cc(-c3ccccc3)ccc2s1` (centres unmarked) [Example 610, N-[(cyclopropyl-carbamoyl)methyl]-2-methanesulfonyl-2-(5-phenyl-1,3-benzothiazol-2-yl)acetamide] in this work.

An IC50 of 3 nM was found for `COCCS(=O)(=O)C(C(=O)NCC(=O)NC1CC1)c1nc2cc(-c3ccccc3)c(F)cc2s1` (centres unmarked) [Example 612, N-[(cyclopropyl-carbamoyl)methyl]-2-(6-fluoro-5-phenyl-1,3-benzothiazol-2-yl)-2-(2-methoxyethane-sulfonyl)acetamide] in this work.

An IC50 (reference compounds, EL from conditioned media of HT-1080 cells, 30 min preincubation at 37° C.) greater than 62000 nM was found for `CC(C)c1cc(CNC(=O)C(C)(C)c2nc3ccc(-c4ccccc4)cc3s2)on1` [Reference 2, N-((3-Isopropylisoxazol-5-yl)methyl)-2-methyl-2-(6-phenylbenzo[d]thiazol-2-yl)propanamide, reference compound] in this work.

An IC50 of 2 nM was found for “propan-2-yl N-{4- [2-({[(cyclopropyl- carbamoyl)methyl] carbamoyl}(2- methoxyethane- sulfonyl)methyl)- 5-fluoro-1,3- benzothiazol- 6-yl]phenyl} carbamate [Example 540]” in this work.
